US10800792B2, “Inhibitors of Bruton's tyrosine kinase and method of their use” (JANSSEN PHARMACEUTICA NV, priority 2015, dated 2020)

Molecular target: unphosphorylated-BTK kinase domain (UP-BTK), GST-tagged human BTK (389-659aa) (Homo sapiens (Human), UniProt Q06187)
Assay: BTK kinase Lanthascreen binding assay
Conditions: unphosphorylated-BTK kinase domain, 50 nM Tracer 236, 60 minutes; pIC50 = negative log of the IC50 in molar
In short: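 Tracer-displacement binding assay against the non-phosphorylated enzyme, read by Lanthascreen. Reported: pIC50.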

Chain of unphosphorylated-BTK kinase domain (UP-BTK), GST-tagged human BTK (389-659aa) (Q06187 389-659): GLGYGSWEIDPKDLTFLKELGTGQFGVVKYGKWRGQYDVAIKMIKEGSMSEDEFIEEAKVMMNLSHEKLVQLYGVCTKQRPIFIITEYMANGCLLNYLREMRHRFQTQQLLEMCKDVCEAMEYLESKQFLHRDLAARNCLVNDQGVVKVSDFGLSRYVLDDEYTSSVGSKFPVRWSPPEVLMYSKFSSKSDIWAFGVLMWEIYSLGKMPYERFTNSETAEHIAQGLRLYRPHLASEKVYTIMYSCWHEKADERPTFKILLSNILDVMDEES

Row | BTK_I_binding pIC50 | Compound
1 | <5 | COc1ccc(N2C(=O)Nc3c(C(=O)N[C@@H]4CCCNC4)sc4nccc2c34)cc1C(F)(F)F [Example 459, (R)-5-(4-Methoxy-3-(trifluoromethyl)phenyl)-4-oxo-N-(piperidin-3-yl)-4,5-dihydro-3H-1-thia-3,5,8-triazaacenaphthylene-2-carboxamide]
2 | 5.3 | Cc1ccc(N2C(=O)Nc3c(C(=O)N[C@@H]4CCCNC4)sc4nccc2c34)cc1Cl [Example 460, (R)-5-(3-Chloro-4-methylphenyl)-4-oxo-N-(piperidin-3-yl)-4,5-dihydro-3H-1-thia-3,5,8-triazaacenaphthylene-2-carboxamide]
3 | 5.0 | Cc1ccc(N2C(=O)Nc3c(C(=O)N[C@@H]4CCCNC4)sc4nccc2c34)cc1C(F)(F)F [Example 461, (R)-5-(4-Methyl-3-(trifluoromethyl)phenyl)-4-oxo-N-(piperidin-3-yl)-4,5-dihydro-3H-1-thia-3,5,8-triazaacenaphthylene-2-carboxamide]
4 | 6.4 | O=C(NCC1CCCO1)c1sc2nccc3c2c1NC(=O)N3c1ccc(Oc2ccccc2)cc1 (stereo not shown) [Example 462, 4-Oxo-5-(4-phenoxyphenyl)-N-((tetrahydrofuran-2-yl)methyl)-4,5-dihydro-3H-1-thia-3,5,8-triazaacenaphthylene-2-carboxamide]
5 | 7.9 | C=CC(=O)N1C[C@H](NC(=O)c2sc3nccc4c3c2NC(=O)N4c2ccc(Oc3ccccc3)cc2)[C@@H](O)C1 [Example 463, N-((3S,4S)-1-Acryloyl-4-hydroxypyrrolidin-3-yl)-4-oxo-5-(4-phenoxyphenyl)-4,5-dihydro-3H-1-thia-3,5,8-triazaacenaphthylene-2-carboxamide]
6 | 6.8 | O=C(N[C@H]1CNC[C@@H]1O)c1sc2nccc3c2c1NC(=O)N3c1ccc(Oc2ccccc2)cc1 [Example 464, N-((3S,4S)-4-Hydroxypyrrolidin-3-yl)-4-oxo-5-(4-phenoxyphenyl)-4,5-dihydro-3H-1-thia-3,5,8-triazaacenaphthylene-2-carboxamide]
7 | 6.2 | O=C(N[C@@H]1CCCNC1)c1sc2nccc3c2c1NC(=O)N3c1cccc(Cc2ccccc2)c1 [Example 465, (R)-5-(3-Benzylphenyl)-4-oxo-N-(piperidin-3-yl)-4,5-dihydro-3H-1-thia-3,5,8-triazaacenaphthylene-2-carboxamide]
8 | 6.7 | O=C(N[C@@H]1CCCNC1)c1sc2nccc3c2c1NC(=O)N3c1cccc(Oc2ccccc2)c1 [Example 466, (R)-4-Oxo-5-(3-phenoxyphenyl)-N-(piperidin-3-yl)-4,5-dihydro-3H-1-thia-3,5,8-triazaacenaphthylene-2-carboxamide]
9 | 7.4 | C=CC(=O)N1CC(NC(=O)c2sc3nccc4c3c2NC(=O)N4c2ccc(Oc3ccccc3)cc2C)C1 [Example 496, N-(1-Acryloylazetidin-3-yl)-5-(*S)-(2-methyl-4-phenoxyphenyl)-4-oxo-4,5-dihydro-3H-1-thia-3,5,8-triazaacenaphthylene-2-carboxamide]
10 | 7.9 | C=CC(=O)N1CCC[C@@H](NC(=O)c2sc3nccc4c3c2NC(=O)N4c2ncc(Oc3ccccc3)cc2C)C1 [Example 497, (R)—N-(1-Acryloylpiperidin-3-yl)-5-(3-methyl-5-phenoxypyridin-2-yl)-4-oxo-4,5-dihydro-3H-1-thia-3,5,8-triazaacenaphthylene-2-carboxamide]
11 | 7.8 | C=CC(=O)N1CCC[C@@H](NC(=O)c2sc3nccc4c3c2NC(=O)N4c2cccc(-c3cccc(F)c3F)c2)C1 [Example 498, (R)—N-(1-Acryloylpiperidin-3-yl)-5-(2′,3′-difluoro-[1,1′-biphenyl]-3-yl)-4-oxo-4,5-dihydro-3H-1-thia-3,5,8-triazaacenaphthylene-2-carboxamide]
12 | 8.1 | C=CC(=O)N1CCC[C@@H](NC(=O)c2sc3nccc4c3c2NC(=O)N4c2cccc(-c3cccc(F)c3)c2)C1 [Example 500, (R)—N-(1-Acryloylpiperidin-3-yl)-5-(3′-fluoro-[1,1′-biphenyl]-3-yl)-4-oxo-4,5-dihydro-3H-1-thia-3,5,8-triazaacenaphthylene-2-carboxamide]
13 | 8.0 | C=CC(=O)N1CCC[C@@H](NC(=O)c2sc3nccc4c3c2NC(=O)N4c2cccc(-c3ccccc3C)c2)C1 [Example 504, (R)—N-(1-Acryloylpiperidin-3-yl)-5-(2′-methyl-[1,1′-biphenyl]-3-yl)-4-oxo-4,5-dihydro-3H-1-thia-3,5,8-triazaacenaphthylene-2-carboxamide]
14 | 7.9 | C=CC(=O)N1CCC[C@@H](NC(=O)c2sc3nccc4c3c2NC(=O)N4c2ccc(Oc3ccccc3)nc2)C1 [Example 506, (R)—N-(1-Acryloylpiperidin-3-yl)-4-oxo-5-(6-phenoxypyridin-3-yl)-4,5-dihydro-3H-1-thia-3,5,8-triazaacenaphthylene-2-carboxamide]
15 | 7.8 | C=CC(=O)N1CCC[C@@H](NC(=O)c2sc3nccc4c3c2NC(=O)N4c2cccc(-c3cccc(Cl)c3)c2)C1 [Example 507, (R)—N-(1-Acryloylpiperidin-3-yl)-5-(3′-chloro-[1,1′-biphenyl]-3-yl)-4-oxo-4,5-dihydro-3H-1-thia-3,5,8-triazaacenaphthylene-2-carboxamide]
16 | 8.0 | C=CC(=O)N1CCC[C@@H](NC(=O)c2sc3nccc4c3c2NC(=O)N4c2cccc(-c3ccccc3Cl)c2)C1 [Example 510, (R)—N-(1-Acryloylpiperidin-3-yl)-5-(2′-chloro-[1,1′-biphenyl]-3-yl)-4-oxo-4,5-dihydro-3H-1-thia-3,5,8-triazaacenaphthylene-2-carboxamide]
17 | 7.8 | C=CC(=O)N1CCC[C@@H](NC(=O)c2sc3nccc4c3c2NC(=O)N4c2ccnc(-c3ccccc3)c2)C1 [Example 512, (R)—N-(1-Acryloylpiperidin-3-yl)-4-oxo-5-(2-phenylpyridin-4-yl)-4,5-dihydro-3H-1-thia-3,5,8-triazaacenaphthylene-2-carboxamide]
18 | 8.2 | C=CC(=O)N1CCC[C@@H](NC(=O)c2sc3nccc4c3c2NC(=O)N4c2ccc(Oc3ccccc3)cn2)C1 [Example 513, (R)—N-(1-Acryloylpiperidin-3-yl)-4-oxo-5-(5-phenoxypyridin-2-yl)-4,5-dihydro-3H-1-thia-3,5,8-triazaacenaphthylene-2-carboxamide]
19 | 7.7 | C=CC(=O)N1CCC[C@@H](NC(=O)c2sc3nccc4c3c2NC(=O)N4c2cccc(-c3ccc(F)cc3F)c2)C1 [Example 515, (R)—N-(1-Acryloylpiperidin-3-yl)-5-(2′,4′-difluoro-[1,1′-biphenyl]-3-yl)-4-oxo-4,5-dihydro-3H-1-thia-3,5,8-triazaacenaphthylene-2-carboxamide]
20 | 7.7 | C=CC(=O)N1CCC[C@@H](NC(=O)c2sc3nccc4c3c2NC(=O)N4c2cccc(Cc3ccccc3)c2)C1 [Example 516, (R)—N-(1-Acryloylpiperidin-3-yl)-5-(3-benzylphenyl)-4-oxo-4,5-dihydro-3H-1-thia-3,5,8-triazaacenaphthylene-2-carboxamide]
21 | 7.5 | C=CC(=O)N1CCC[C@@H](NC(=O)c2sc3nccc4c3c2NC(=O)N4c2cccc(-c3cccc(C)c3)c2)C1 [Example 517, (R)—N-(1-Acryloylpiperidin-3-yl)-5-(3′-methyl-[1,1′-biphenyl]-3-yl)-4-oxo-4,5-dihydro-3H-1-thia-3,5,8-triazaacenaphthylene-2-carboxamide]
22 | 7.3 | C=CC(=O)N1CCC[C@@H](NC(=O)c2sc3nccc4c3c2NC(=O)N4c2cccc(C3CCCCC3)c2)C1 [Example 519, (R)—N-(1-Acryloylpiperidin-3-yl)-5-(3-cyclohexylphenyl)-4-oxo-4,5-dihydro-3H-1-thia-3,5,8-triazaacenaphthylene-2-carboxamide]
23 | 7.5 | C=CC(=O)N1CCC[C@@H](NC(=O)c2sc3nccc4c3c2NC(=O)N4c2cccc(-c3ccc(C)cc3)c2)C1 [Example 521, (R)—N-(1-Acryloylpiperidin-3-yl)-5-(4′-methyl-[1,1′-biphenyl]-3-yl)-4-oxo-4,5-dihydro-3H-1-thia-3,5,8-triazaacenaphthylene-2-carboxamide]
24 | 7.5 | C=CC(=O)N1CCC[C@@H](NC(=O)c2sc3nccc4c3c2NC(=O)N4c2ccc3c(c2)OC(F)(F)O3)C1 [Example 525, (R)—N-(1-Acryloylpiperidin-3-yl)-5-(2,2-difluorobenzo[d][1,3]dioxol-5-yl)-4-oxo-4,5-dihydro-3H-1-thia-3,5,8-triazaacenaphthylene-2-carboxamide]
25 | 7.6 | C=CC(=O)N1CCC[C@@H](NC(=O)c2sc3nccc4c3c2NC(=O)N4c2cc(-c3ccccc3)ccn2)C1 [Example 526, (R)—N-(1-Acryloylpiperidin-3-yl)-4-oxo-5-(4-phenylpyridin-2-yl)-4,5-dihydro-3H-1-thia-3,5,8-triazaacenaphthylene-2-carboxamide]
26 | 8.1 | C=CC(=O)N1CCC[C@@H](NC(=O)c2sc3nccc4c3c2NC(=O)N4c2cccc(Oc3ccccc3)c2)C1 [Example 527, (R)—N-(1-Acryloylpiperidin-3-yl)-4-oxo-5-(3-phenoxyphenyl)-4,5-dihydro-3H-1-thia-3,5,8-triazaacenaphthylene-2-carboxamide]
27 | 7.8 | C=CC(=O)N1CCC[C@@H](NC(=O)c2sc3nccc4c3c2NC(=O)N4c2cnc(Oc3ccccc3)cn2)C1 [Example 528, (R)—N-(1-Acryloylpiperidin-3-yl)-4-oxo-5-(5-phenoxypyrazin-2-yl)-4,5-dihydro-3H-1-thia-3,5,8-triazaacenaphthylene-2-carboxamide]
28 | 7.6 | C=CC(=O)N1CCC[C@@H](NC(=O)c2sc3nccc4c3c2NC(=O)N4c2cccc(C(C)C)c2)C1 [Example 529, (R)—N-(1-Acryloylpiperidin-3-yl)-5-(3-isopropylphenyl)-4-oxo-4,5-dihydro-3H-1-thia-3,5,8-triazaacenaphthylene-2-carboxamide]
